Counter-ions that a name gives are not always drawn.

The first experiment relates to Erk signaling pathway. Nature of the experiment: Lysosome inward movement in the presence of the MAPK inhibitor U0126, and Erk western blot. In kind it is cell-based. As to conditions: deptropine and pizotifen 5 μM, 4 hours, A172 cells. As for the experimental part: Turning to FIG. 8, deptropine and pizotifen are shown to act through the Erk signaling pathway. In this experiment, A172 cells were treated with deptropine and pizotifen at 5 μM concentrations for 4 hours in the presence of the MAPK inhibitor U0126. I.F. microscopy was then performed. This helped allow the determination of the mechanism of action of deptropine and pizotifen.
For the molecule `N#CC(=C(/N)Sc1ccccc1N)/C(C#N)=C(\N)Sc1ccccc1N` [U0126], the “effect of U0126 on inward movement of lysosomes induced by deptropine and pizotifen” value was “prevents the action of deptropine and pizotifen”.

In the next experiment the test system is A172 glioblastoma cells. Nature of the experiment: Acidic media pH induced lysosome distribution, LAMP-1 IF imaging. In kind it is cell-based. Conditions: EIPA, low pHe media. The method, then:
A172 glioblastoma cells were treated overnight with 5 or 10 μM deptropine or pizotifen or with the deptropine or pizotifen in combination at 5 μM concentration. The next day, media was change to low pHe media containing deptropine or pizotifen and the cells were incubated for an additional 2 h. EIPA is a known inhibitor of lysosomal outward movement and represents the positive control. At the end of the incubation time, cells were fixed and stained for LAMP-1, filamentous actin and nuclei. Representative merged IF images depicting the effect of pHe 7.4, pHe 6.4, DMSO or deptropine and pizotifen on the distribution of lysosomes in A172 glioblastoma cells. On color versions of the Figure, red puncta are lysosomes, blue is nuclei and green is actin. As could be seen, lysosomes appear more peripherally distributed in A172 glioma cells than in cells treated with concentrations of 5 to 10 micromolar deptropine or pizotifen.
Cells were treated as described above with FIG. 2 but included a concentration of 0.1 micromolar and 1 micromolar deptropine and pizotifen.
Turning to FIG. 7, an additional aspect of this technology is how quickly deptropine and pizotifen act to move lysosomes towards the nucleus. […] A172 glioblastoma cells were treated with the 5 or 10 μM deptropine or pizofifen for 2 h and then with low pHe media containing the drugs for an additional 2 hours. At the end of incubation time, cells were fixed and stained for LAMP-1, filamentous actin, and nuclei. Representative merged IF images depicting the effect of DMSO, 5 and 10 μM deptropine or pizotifen upon 4 hours on the distribution of lysosomes, colored red in color images, in A172 glioblastoma cells. Also shown in color images are actin, colored green, and nuclei, colored blue.
Take `CCN(c1nc(N)c(C(=O)NC(=N)N)nc1Cl)C(C)C` [EIPA]: the “acidic media induced lysosome redistribution, positive control” value was “prevented lysosome redistribution and induced clustering of lysosomes around the nucleus”.

The test system of the next experiment is DU145 prostate cancer cells. Nature of the experiment: High content imaging-based screen (Cellomics) for lysosome migration inhibitors. As to conditions: EIPA 25 uM, 16 hours. In kind it is cell-based. The method, then: DEVELOPMENT OF A HIGH CONTENT IMAGING-BASED SCREEN: The followings process was followed to identify chemicals that were lysosome migration inhibitors. DU145 prostate cancer cells were seeded in 96 well flat bottom black walled plates at 4,500 cells per well. All compounds and controls were exposed to RPMI bicarbonate buffered media (pH 6.4). RPMI buffered media titrated at pH of 6.4-6.8 was added to column 12 after the media was removed and serves as negative control (low acidic pH so lysosomes move out). […] The 4 compound libraries chosen to screen were the NIH Clinical Collection (450 drugs), Prestwick (1200 drugs), Prestwick phytochemical and the Green Pharma collection (xx drugs). Compounds were diluted with buffered RPMI media to 2 micrograms per ml concentrations. Individual compounds to be screened were added robotically as a single compound per well through columns 2-11. Plates were incubated at 37 degrees in 5% CO2 for 16 hours then the medium was removed and the cells were fixed with 4% cold paraformaldehyde (Sigma-Aldrich) for 20 minutes at 4 degrees. Fixed cells were washed once with PBS. To stain lysosomes, cells were incubated for 1 hour with LAMP1 antibody (H4A3) diluted in BSP (containing 0.25% BSA and 0.1% saponin in PBS) at 1/200. Cells were then washed with PBS 3 times then incubated for 1 hour with Dylight Donkey anti-mouse diluted at 1/200 in BSP. To stain the nucleus, cells were then washed with PBS 3 times and incubated for 20 minutes with 1×DAPI diluted in PBS. DAPI was washed off with PBS and cells were maintained in PBS for the duration of the screening process. Plates were mounted and read in a Cellomics Arrayscan automated fluorescence imager. The Cellomics platform allows for high content throughput screening by combining fluorescence microscopy with a multi-parameter image analysis. Cells were photographed using 20× objective in 2 fluorescent channels. A total of 15 different fields in each well, and at least 300 cells were imaged per well. The biocompartmental analysis algorithm was used to identify each cell by its nucleus (channel 1 recognized by the DAPI stain) and to generate a cytoplasmic mask (ring) of 12 pixels width in which the inner ring was 6 pixels away from the nucleus. The algorithm calculates the number of lysosomes inside the ring as indicated by fluorescent LAMP-1 positive puncta in channel 2 as a mean ring spot count. Therefore, when lysosomes move away from the nucleus and disperse throughout the cytoplasm, the number of spots representing lysosomes inside the cytoplasmic ring increases (low pH conditions). By contrast, lysosomes cluster near the nucleus the numbers of spot inside the cytoplasmic ring decreases (EIPA treated).
Z′-factor is a simple statistical coefficient used to assess performance and quality of the assay in high-throughput screening. It is calculated with the formula: Z′=1-(3σct+3σcb)/|μct−μcb|, where p indicates mean, a represents standard deviation, “ct” indicates the positive control, “cb” indicates the negative control. […] If the Z′ is more than 0.5, the assay is considered to be high quality assay.
The Z′ factor of the assay was determined from the EIPA (positive control) and low pH (negative control). Experiments were run in duplicate. Only plates with positive Z′ factor was used for analysis.
Turning to `CCN(c1nc(N)c(C(=O)NC(=N)N)nc1Cl)C(C)C` [EIPA], the “lysosome position, positive control” value is on record as “lysosomes near the nucleus”.

The same experiment, now with this note: pH 6.4 media, 2 micrograms per ml, 16 hours.
As to `CCCSc1ccc2nc(NC(=O)OC)[nH]c2c1` [albendazole], the “hit in screen for lysosome migration inhibitors (mean ring spot count)” value is “hits”.

For the molecule `COc1cc2c(c(OC)c1OC)-c1ccc(OC)c(=O)cc1[C@@H](NC(C)=O)CC2` [colchicine], the “hit in screen for lysosome migration inhibitors (mean ring spot count)” value is “hits”. Take `CC(C)[C@@]1(NC(=O)[C@@H]2C[C@@H]3c4cccc5[nH]cc(c45)C[C@H]3N(C)C2)O[C@@]2(O)[C@@H]3CCCN3C(=O)[C@H](Cc3ccccc3)N2C1=O` [dihydroergocristine mesylate, (5′α,10α)-9,10-Dihydro-12′-hydroxy-2′-(1-methylethyl)-5′-(phenylmethyl)-ergotaman-3′, 6′, 18-trione mesylate]: the “hit in screen for lysosome migration inhibitors (mean ring spot count)” value is “hits”. For the molecule `COC(=O)Nc1nc2ccc(Sc3ccccc3)cc2[nH]1` [fenbendazole], the “hit in screen for lysosome migration inhibitors (mean ring spot count)” value is on record as “hits”. The same measure, in the same setting: with `COc1ccc2c(c1)[nH]c1c(C)nccc12` [harmine] the entry was “hit”; with `COC(=O)Nc1nc2ccc(C(=O)c3ccccc3)cc2[nH]1` [mebendazole], “hits”; with `OC(c1cc(C(F)(F)F)nc2c(C(F)(F)F)cccc12)C1CCCCN1` (stereo not drawn) [mefloquine, [(R*,S*)-2,8-bis(trifluoromethyl)quinolin-4-yl]-(2-piperidyl)methanol], “hit”.

As to `O=C(Nc1ccc([N+](=O)[O-])cc1Cl)c1cc(Cl)ccc1O` [niclosamide], the “hit in screen for lysosome migration inhibitors (mean ring spot count)” value is reported as “hits”. On to `CC(=O)O[C@H]1C(=O)[C@@]2(C)[C@H]([C@H](OC(=O)c3ccccc3)[C@]3(O)C[C@H](OC(=O)[C@H](O)[C@@H](NC(=O)c4ccccc4)c4ccccc4)C(C)=C1C3(C)C)[C@]1(OC(C)=O)CO[C@@H]1C[C@@H]2O` [paclitaxel], for which the “hit in screen for lysosome migration inhibitors (mean ring spot count)” value is listed as “hits”.

For the molecule `COc1cc([C@@H]2c3cc4c(cc3[C@H](O)[C@H]3COC(=O)[C@H]23)OCO4)cc(OC)c1OC` [podophyllotoxin], the “hit in screen for lysosome migration inhibitors (mean ring spot count)” value is “hits”. Consider `O=C(c1ccc(OCCN2CCCCC2)cc1)c1c(-c2ccc(O)cc2)sc2cc(O)ccc12` [raloxifene], for which the “hit in screen for lysosome migration inhibitors (mean ring spot count)” value is listed as “hits”.

On to `CC[C@]1(O)C[C@H]2CN(CCc3c([nH]c4ccccc34)[C@@](C(=O)OC)(c3cc4c(cc3OC)N(C=O)[C@H]3[C@@](O)(C(=O)OC)[C@H](OC(C)=O)[C@]5(CC)C=CCN6CC[C@]43[C@@H]65)C2)C1` [vincristine], for which the “hit in screen for lysosome migration inhibitors (mean ring spot count)” value is reported as “hits”. In the case of `CC[C@]1(O)C[C@@H]2CN(CCc3c([nH]c4ccccc34)[C@@](C(=O)OC)(c3cc4c(cc3OC)N(C)[C@H]3[C@@](O)(C(N)=O)[C@H](O)[C@]5(CC)C=CCN6CC[C@]43[C@@H]65)C2)C1` [vindesine], the “hit in screen for lysosome migration inhibitors (mean ring spot count)” value is “hits”. Take `CCC1=C[C@@H]2CN(C1)Cc1c([nH]c3ccccc13)[C@@](C(=O)OC)(c1cc3c(cc1OC)N(C)[C@H]1[C@@](O)(C(=O)OC)[C@H](OC(C)=O)[C@]4(CC)C=CCN5CC[C@]31[C@@H]54)C2` [vinorelbine]: the “hit in screen for lysosome migration inhibitors (mean ring spot count)” value is recorded as “hits”.

dihydroergotoxine mesylate: the “hit in screen for lysosome migration inhibitors (mean ring spot count)” value is recorded as “hits”.

These data come from patent US20200330447A1, “CANCER TREATMENT VIA REPOSITIONED TRICYCLIC ANTI-DEPRESSANT-LIKE DRUGS AS ANTI-CANCER AGENTS AND NEW COMBINATIONS OF SUCH DRUGS” (Board of Supervisors of Louisiana State University and …, priority 2015, published 2020).
